According to patent US7888040B2, “Detection of methamphetamine group drugs” (priority 2004, dated 2011):

What was measured:
[1] = tested on: monoclonal anti-methamphetamine antibody; assay: Competitive inhibition ELISA (CELIA) on BSA-pseudoephedrine coated wells; assay type: binding, mouse; settings: for Detection by the competitive ELISA (in words): summary of Table 1
Experimental: The conjugate was evaluated using ELISA. 96-well microtitre plates (Costar) were coated with BSA-pseudoephedrine (5 :g/ml in 0.05 M sodium carbonate/bicarbonate buffer, pH 9.6, 100 :l/well) overnight at room temperature. […] Two fold dilutions of monoclonal anti-methamphetamine antibody (East coast Biological, USA) in wash buffer containing 10 mg/ml BSA (assay buffer) were added to the wells (100 :l/well) and the plate incubated at room temperature for 30 minutes. The wells were washed 3 times with wash buffer and horseradish peroxidase-labelled goat anti-mouse IgG antibody (product number A-4416, Sigma Co., Poole, England) was added to the wells (1/2000 dilution in assay buffer, 100 :l/well) and incubation continued for a further 30 minutes. […] After 30 minutes incubation, colour development was stopped by the addition of 1 M sulphuric acid (100 :l/well). Colour intensity was measured at 450 nm.
Competitive ELISA was then set up to evaluate the cross-reactivity of various drugs with methamphetamine. […] The designer ecstasy drugs MDMA and MBDB were well detected by this assay.

[2] = tested on: gold-labelled mouse anti-methamphetamine antibody; assay: Lateral flow immunochromatography test for methamphetamine/ecstasy in spiked oral fluid; settings: for Lateral flow test result: cut off set at ≧15 ng/ml (+)-methamphetamine; for Lateral flow test result (in words): Table 2, at the concentrations tested
[3] = compound at 10,000 ng/ml, read off (+)-methamphetamine or ecstasy standard curve
[4] = compound at 10,000 ng/ml in spiked saliva
[5] = compound at 15 ng/ml in spiked saliva, Cozart Rapiscan reader

| Molecule | % Cross-reactivity ([1]; compound at 10,000 ng/ml) | Concentration determined by ELISA [1, 3] | Lateral flow test result [2, 4] | also measured |
| --- | --- | --- | --- | --- |
| CC(N)C(O)c1ccccc1 (stereo not drawn) [phenylpropanolamine] | 0.06% | 5.8 ng/mL | negative |  |
| CC(C)(N)Cc1ccccc1 [phentermine] |  |  |  | % Cross-reactivity ([1]; compound at 50,000 ng/ml): 0.009%; Concentration determined by ELISA ([1]; compound at 50,000 ng/ml): 4.67 ng/mL |
| NCCc1ccc(O)cc1 [tyramine, 4-hydroxy-phenethylamine] | 0.03% | 3.72 ng/mL | negative |  |
| (+)-methamphetamine [(+)- methylamphetamine] |  |  |  | Lateral flow test result (in words) [2]: picked up; Lateral flow test result [2, 5]: positive |
| CNC(C)Cc1ccc2c(c1)OCO2 (stereo not drawn) [MDMA (Ecstasy), 3,4-methylenedioxymethamphetamine] |  |  |  | % Cross-reactivity ([1]; compound at 15 ng/ml): 55.0%; Concentration determined by ELISA ([1]; compound at 15 ng/ml): 8.26 ng/mL; % Cross-reactivity ([1]; compound at 50 ng/ml): 48.1%; Concentration determined by ELISA ([1]; compound at 50 ng/ml): 24.09 ng/mL; % Cross-reactivity ([1]; compound at 100 ng/ml): 53.19%; Concentration determined by ELISA ([1]; compound at 100 ng/ml): 53.19 ng/mL; Detection by the competitive ELISA (in words) [1]: well detected; Lateral flow test result (in words) [2]: picked up; Lateral flow test result ([2]; compound at 30 ng/ml in spiked saliva): positive |
| (+)-pseudoephedrine | 0.063% | 6.3 ng/mL | negative |  |
| CN(C)CCC(c1ccccc1)c1ccccn1 (stereo not drawn) [Pheniramine] |  |  | negative |  |
| CN(C)CCC(c1ccc(Cl)cc1)c1ccccn1 (stereo not drawn) [Chlorpheniramine] |  |  | negative |  |
| CN[C@H](C)[C@@H](O)c1ccccc1 [(+)-ephedrine] | 0.08% | 8.37 ng/mL | negative |  |
| (−)-pseudoephedrine | 0.048% | 4.84 ng/mL | negative |  |
| CN[C@@H](C)[C@H](O)c1ccccc1 [(−)-ephedrine] | 0.05% | 5.05 ng/mL | negative |  |
| NCCc1ccccc1 [beta-phenylethylamine] | 0.25% | 25.6 ng/mL | negative |  |
| CC(N)Cc1ccccc1 (single isomer, unassigned; (+)) [(+)-amphetamine] | 0.379% | 37.97 ng/mL | negative | % Cross-reactivity ([1]; compound at 10,000 ng/ml, listed as amphetamine): < 0.4% |
| CCC(Cc1ccc2c(c1)OCO2)NC (racemic) [MBDB, (+/−)-N-methyl-1-(3,4-methylenedioxyphenyl)-2-butanamine] |  |  |  | % Cross-reactivity ([1]; compound at 25 ng/ml): 75.04%; Concentration determined by ELISA ([1]; compound at 25 ng/ml): 18.76 ng/mL; % Cross-reactivity ([1]; compound at 100 ng/ml): 66.43%; Concentration determined by ELISA ([1]; compound at 100 ng/ml): 66.43 ng/mL; % Cross-reactivity ([1]; compound at 500 ng/ml): 87.78%; Concentration determined by ELISA ([1]; compound at 500 ng/ml): 438.88 ng/mL; Detection by the competitive ELISA (in words) [1]: well detected; Lateral flow test result (in words) [2]: picked up; Lateral flow test result [2, 5]: positive |
| CCNC(C)Cc1cccc(C(F)(F)F)c1 (stereo not drawn) [Fenfluramine] |  |  | negative |  |
| CC(N)Cc1ccc2c(c1)OCO2 (stereo not drawn) [MDA, 3,4-methylenedioxyamphetamine] | 0.219% | 21.94 ng/mL | negative |  |
| CNC1(c2ccccc2Cl)CCCCC1=O (stereo not drawn) [Ketamine] |  |  | negative |  |
